Data: PubChem BioAssay (NCI)
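Five concentrations, 48 hours, 96-well plates. The concentration for full growth arrest is given as TGI.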

Experiments:
Assay in all cases: inhibition of tumour cell growth, NCI panel, 48 h
DLD-1 colon = test system: DLD-1 colon
SNB-78 CNS = test system: SNB-78 CNS
XF 498 CNS = test system: XF 498 CNS
DMS 273 small cell lung = test system: DMS 273 small cell lung
RXF-631 renal = test system: RXF-631 renal

| Compound | TGI (DLD-1 colon) [µM] | TGI (SNB-78 CNS) [µM] | TGI (XF 498 CNS) [µM] | TGI (DMS 273 small cell lung) [µM] | TGI (RXF-631 renal) [µM] |
| --- | --- | --- | --- | --- | --- |
| O=c1cc(-c2ccc3c(c2)OCO3)[nH]c2cc3c(cc12)OCO3 | > 100 | > 100 | > 100 | > 100 |  |
| CCOC(=O)/C(=C/c1ccc(OC)cc1)N(CC)CC |  | > 100 | > 100 | > 100 |  |
| CCNC(=O)c1ccc(C)c(N=NN(C)C)c1 | > 100 | > 100 |  | > 100 |  |
| CNC(=O)NCCCC(NC(C)=O)C(=O)NCc1ccccc1 (configuration not stated) | > 100 | > 100 |  | > 100 | > 100 |
| CC(=O)OCCOCNC(=S)N/N=C/c1ccc([N+](=O)[O-])o1 | > 100 | > 100 | > 100 | > 100 | > 100 |
| COc1cc(C2C(Cl)C(=O)N2n2cnc3ccccc3c2=O)ccc1O (configuration not stated) | > 100 | > 100 |  | > 100 |  |
| COc1cc(-c2cccs2)sc1-c1cccs1 | > 100 | > 100 |  | > 100 |  |
| COc1ccc(C2Oc3cc(OC)c(OC)cc3C2CCl)cc1OC (configuration not stated) | > 100 |  | > 100 | > 100 |  |
| CCCC/C=C/C=C/C=C/CCCCCCCC(=O)OCC(COC(=O)CCCCCCC/C=C/C1C=CC(CCCC)C(C(=O)O)C1C(=O)O)OC(=O)CCCCCCC/C=C/C=C/C=C/CCCC (configuration not stated) (tested in a mixture with another compound) | 40 |  |  | 29.9 |  |
| N#Cc1cccc(-n2[nH]c(=O)ccc2=O)c1 | > 100 |  |  | > 100 |  |
| O=C1C(Br)=C(Br)C(=O)c2ccc(=O)ccc21 | 46.6 | > 100 | 43.2 | > 100 | 39.7 |
